From patent US8163935B2, “Fused heterocyclic compounds” (Takeda Pharmaceutical Company Limited, priority 2005, dated 2012)

Row | SMILES | melting point
1 | CCCC(CCC)c1ccc(Cl)c2nc(Nc3c[nH]c(=O)cc3C)n(C)c12 [Example 116, 5-{[4-Chloro-1-methyl-7-(1-propylbutyl)-1H-benzimidazol-2-yl]amino}-4-methylpyridin-2(1H)-one] | 237 to 239 °C
2 | CCC(CC)c1ccc(Cl)c2nc(Oc3c(C)cc(C)cc3C)n(C)c12 [Example 99, 4-Chloro-7-(1-ethylpropyl)-2-(mesityloxy)-1-methyl-1H-benzimidazole] | 137 to 139 °C
3 | CCC(CC)c1ccc(Cl)c2nc(Nc3ccc(OC(F)(F)F)cc3Cl)n(C)c12 [Example 87, 4-Chloro-N-[2-chloro-4-(trifluoromethoxy)phenyl]-7-(1-ethylpropyl)-1-methyl-1H-benzimidazol-2-amine] | 122 to 123 °C
4 | CCCC(CCC)c1ccc(Cl)c2nc(Nc3ccc(Br)cc3Cl)n(C)c12 [Example 93, N-(4-Bromo-2-chlorophenyl)-4-chloro-1-methyl-7-(1-propylbutyl)-1H-benzimidazol-2-amine] | 145 to 147 °C
5 | CCC(CC)c1ccc(Cl)c2nc(Nc3c(C)cc(Br)cc3C)n(C)c12 [Example 82, N-(4-Bromo-2,6-dimethylphenyl)-4-chloro-7-(1-ethylpropyl)-1-methyl-1H-benzimidazol-2-amine] | 247 to 249 °C
6 | CCC(CC)c1ccc(Cl)c2nc(Nc3c(C)cc(Cl)cc3C)n(C)c12 [Example 83, 4-Chloro-N-(4-chloro-2,6-dimethylphenyl)-7-(1-ethylpropyl)-1-methyl-1H-benzimidazol-2-amine] | 247 to 249 °C
7 | CCC(CC)c1ccc(Cl)c2nc(Nc3c(C)cc(Cl)cc3OC)n(CC(=O)OC(C)C)c12 [Example 102, Isopropyl[4-chloro-2-[(4-chloro-2-methoxy-6-methylphenyl)amino]-7-(1-ethylpropyl)-1H-benzimidazol-1-yl]acetate] | 205 to 207 °C
8 | CCC(CC)c1ccc(Cl)c2nc(Nc3cnc(N(C)C)cc3C)n(C)c12 [Example 88, N^5-[4-Chloro-7-(1-ethylpropyl)-1-methyl-1H-benzimidazol-2-yl]-N^2,N^2,4-trimethylpyridine-2,5-diamine] | 224 to 226 °C
9 | CCCC(CCC)c1ccc(Cl)c2nc(Nc3cccc4c3CCCC4)n(C)c12 [Example 117, 4-Chloro-1-methyl-7-(1-propylbutyl)-N-(5,6,7,8-tetrahydronaphthalen-1-yl)-1H-benzimidazol-2-amine] | 236 to 238 °C
10 | COc1cc(Cl)cc(C)c1Nc1nc2c(Cl)ccc(C(=O)C(C)(C)C)c2n1C [Example 105, 1-{4-Chloro-2-[(4-chloro-2-methoxy-6-methylphenyl)amino]-1-methyl-1H-benzimidazol-7-yl}-2,2-dimethylpropan-1-one] | 249 to 250 °C
11 | CCC(CC)c1ccc(Cl)c2nc(Nc3ccc(C)cc3Br)n(C)c12 [Example 86, N-(2-Bromo-4-methylphenyl)-4-chloro-7-(1-ethylpropyl)-1-methyl-1H-benzimidazol-2-amine] | 174 to 176 °C
12 | COc1cc(Cl)cc(C)c1Nc1nc2c(Cl)ccc(C(=C(C)C)C(C)C)c2n1C [Example 108, 4-Chloro-N-(4-chloro-2-methoxy-6-methylphenyl)-7-(1-isopropyl-2-methylprop-1-en-1-yl)-1-methyl-1H-benzimidazol-2-amine] | 166 to 168 °C
13 | CCCC(CCC)c1ccc(Cl)c2nc(Nc3c(C)cc(Br)cc3OC)n(C)c12 [Example 89, N-(4-Bromo-2-methoxy-6-methylphenyl)-4-chloro-1-methyl-7-(1-propylbutyl)-1H-benzimidazol-2-amine] | 210 to 211 °C

Further lines, results first:

Row | melting point | SMILES
14 | 160 to 162 °C | CCCC(CCC)c1ccc(Cl)c2nc(Oc3c(C)cc(Cl)cc3C)n(C)c12 [Example 130, 4-Chloro-2-(4-chloro-2,6-dimethylphenoxy)-1-methyl-7-(1-propylbutyl)-1H-benzimidazole]
15 | 141 to 143 °C | CCC(CC)c1ccc(Cl)c2nc(Oc3c(Cl)cc(Cl)cc3C(=O)N(C)C)n(C)c12 [Example 143, 3,5-Dichloro-2-{[4-chloro-7-(1-ethylpropyl)-1-methyl-1H-benzimidazol-2-yl]oxy}-N,N-dimethylbenzamide]
16 | 107 to 108 °C | CCC(CC)c1ccc(CN2CCCC2)c2nc(Oc3c(C)cc(Cl)cc3Cl)n(C)c12 [Example 156, 2-(2,4-Dichloro-6-methylphenoxy)-7-(1-ethylpropyl)-1-methyl-4-(pyrrolidin-1-ylmethyl)-1H-benzimidazole]
17 | 196 to 198 °C | CCCC(CCC)c1ccc(Cl)c2nc(Nc3cc(C(F)(F)F)c(OC)cc3OC)n(C)c12 [Example 123, 4-Chloro-N-[2,4-dimethoxy-5-(trifluoromethyl)phenyl]-1-methyl-7-(1-propylbutyl)-1H-benzimidazol-2-amine]
18 | 115 to 119 °C | CCc1cc(CC)n(-c2cccc3nc(Oc4c(C)cc(Cl)cc4Cl)n(C)c23)n1 [Example 162, 2-(2,4-Dichloro-6-methylphenoxy)-7-(3,5-diethyl-1H-pyrazol-1-yl)-1-methyl-1H-benzimidazole]
19 | 114 to 115 °C | CCC(CC)c1ccc(Cl)c2nc(Oc3ccc(Cl)cc3Br)n(C)c12 [Example 135, 2-(2-Bromo-4-chlorophenoxy)-4-chloro-7-(1-ethylpropyl)-1-methyl-1H-benzimidazole]
20 | 175 to 177 °C | CCC(CC)c1ccc(O)c2nc(Oc3ccc(Cl)cc3Br)n(C)c12 [Example 147, 2-(2-Bromo-4-chlorophenoxy)-7-(1-ethylpropyl)-1-methyl-1H-benzimidazol-4-ol]
21 | 276 to 278 °C | CCC(CC)c1cc(Br)cc2nc(Nc3c(C)cc(Cl)cc3OC)n(C)c12 [Example 121, 5-Bromo-N-(4-chloro-2-methoxy-6-methylphenyl)-7-(1-ethylpropyl)-1-methyl-1H-benzimidazol-2-amine]
22 | 87 to 88 °C | CCCC(CCC)c1ccc(Cl)c2nc(Oc3ccc(Cl)cc3Cl)n(C)c12 [Example 127, 4-Chloro-2-(2,4-dichlorophenoxy)-1-methyl-7-(1-propylbutyl)-1H-benzimidazole]
23 | 214 to 216 °C | CCC(CC)c1cc(Br)cc2nc(Oc3c(C)cc(Cl)cc3C)n(C)c12 [Example 136, 5-Bromo-2-(4-chloro-2,6-dimethylphenoxy)-7-(1-ethylpropyl)-1-methyl-1H-benzimidazole]
24 | 148 to 150 °C | CCCC(CCC)c1ccc(Cl)c2nc(Oc3c(C)cc(Cl)cc3Cl)n(C)c12 [Example 129, 4-Chloro-2-(2,4-dichloro-6-methylphenoxy)-1-methyl-7-(1-propylbutyl)-1H-benzimidazole]
25 | 165 to 167 °C | CCCC(CCC)c1ccc(Cl)c2nc(Oc3c(C)cc(C)cc3C)n(C)c12 [Example 124, 4-Chloro-2-(mesityloxy)-1-methyl-7-(1-propylbutyl)-1H-benzimidazole]
26 | 159 to 162 °C | CCC(CC)c1ccc(-c2ccco2)c2nc(Oc3ccc(Cl)cc3Br)n(C)c12 [Example 149, 2-(2-Bromo-4-chlorophenoxy)-7-(1-ethylpropyl)-4-(2-furyl)-1-methyl-1H-benzimidazole]
27 | 106 to 107 °C | CCC(CC)c1ccc(OC)c2nc(Oc3ccc(Cl)cc3Br)n(C)c12 [Example 146, 2-(2-Bromo-4-chlorophenoxy)-7-(1-ethylpropyl)-4-methoxy-1-methyl-1H-benzimidazole]
